Paper PMC10143822, “Structural Adaptation of the Single-Stranded DNA-Binding Protein C-Terminal to DNA Metabolizing Partners Guides Inhibitor Design” (Pharmaceutics, 2023)
Where a SMILES comes first, the peptide text is derived from it. [ ]: non-standard residue; d: D form. Phe(4-CF3) = N[C@@H](Cc1ccc(C(F)(F)F)cc1)C(=O)O; Phe(3-Cl) = N[C@@H](Cc1cccc(Cl)c1)C(=O)O; Phe(4-Cl) = N[C@@H](Cc1ccc(Cl)cc1)C(=O)O; Phe(4-F) = N[C@@H](Cc1ccc(F)cc1)C(=O)O; 3Pal = N[C@@H](Cc1cccnc1)C(=O)O; Aib = CC(C)(N)C(=O)O

Assays:
ExoI = molecular target: T1, ExoI (Escherichia coli, UniProt P04995); experiment: biochemical; assay type: binding, E. coli
T1 construct: His-tag (cleaved yes); host or cells: E. coli BL21 (DE3) pLysS
T1 sequence (P04995 whole entry): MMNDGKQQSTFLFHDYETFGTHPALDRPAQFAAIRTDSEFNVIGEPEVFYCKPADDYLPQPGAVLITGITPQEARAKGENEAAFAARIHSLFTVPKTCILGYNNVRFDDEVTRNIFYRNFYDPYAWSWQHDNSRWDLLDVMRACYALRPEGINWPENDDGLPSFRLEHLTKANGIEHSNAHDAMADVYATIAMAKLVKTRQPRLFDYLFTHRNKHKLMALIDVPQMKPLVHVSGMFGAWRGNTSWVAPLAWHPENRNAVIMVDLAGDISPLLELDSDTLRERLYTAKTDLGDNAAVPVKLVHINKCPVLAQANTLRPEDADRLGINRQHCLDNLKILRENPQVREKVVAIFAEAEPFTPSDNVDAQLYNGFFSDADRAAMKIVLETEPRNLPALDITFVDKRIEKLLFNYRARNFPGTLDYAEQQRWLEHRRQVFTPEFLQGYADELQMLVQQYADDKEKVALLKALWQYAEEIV
Description: (§1) Triplicate measurements were performed using a Clariostar Plus Microplate Reader in 384-well plates for all fluorescence anisotropy (FA) experiments. The settings were 25 °C, excitation at 485 nm, emission at 510 nm, settling time of 0.2 s, and 200 flashes per well.
(§2) Competition fluorescence anisotropy experiments were carried out as follows: protein (0.5 μM either ExoI or RecO) was incubated with 50 nM F-wtSSB peptide and 0–500 μM unlabeled wtSSB (or a variant) peptide for 30 min at room temperature. For direct fluorescence anisotropy measurements, 16 µM ExoI and 7.5 µM RecO were used in the first well. After serial dilution, either 50 nM of F-mSSB or F-sSSB was added to the wells and then incubated for 30 min. Buffers used included 20 mM Tris-HCl (pH 8.0), 100 mM NaCl, 1 mM MgCl2, 1 mM 2-mercaptoethanol, 10% (v/v) glycerol, for ExoI and 20 mM Tris-HCl (pH 8.0), 200 mM NaCl, 1 mM 2-mercaptoethanol, 10% (v/v) glycerol, and 0.01% Triton-X 100 for RecO [37].
(§3) Fluorescence anisotropy values were normalized and are shown as bound fractions (BF, %). BF=r−rmin/λ(rmax−r)+r−rmin, I=2∗PG+S, r=S−PG/I, where r: anisotropy, I: total intensity, P: perpendicular intensity, S: parallel intensity, G: an instrument factor set to 1, BF: ligand fraction bound, and λ=λbound/λunbound=1 .
(§4) Competitive fluorescence anisotropy was analyzed in Origin Pro 9.5, and IC50 values were determined using the Logistic Nonlinear fit function and are shown as plots for each mutated position for each protein in Figures S4 and S6. EC50 values from direct fluorescence anisotropy titrations were plotted in Origin 9.5. Values were determined using the Logistics Nonlinear fit function.

RecO = molecular target: T2, RecO (Escherichia coli, UniProt P0A7H3); experiment: biochemical; assay type: binding; settings: 0.5 μM RecO, 50 nM F-wtSSB tracer, 0–500 μM unlabeled peptide, 30 min room temperature; 20 mM Tris-HCl pH 8.0, 200 mM NaCl, 10% glycerol, 0.01% Triton-X 100; 25 °C; triplicate; read-out: IC50 on RecO, competitive fluorescence anisotropy
T2 construct: His-tag (TEV site) (N, cleaved yes); made in house; host or cells: E. coli Rosetta cells
T2 sequence (P0A7H3 whole entry): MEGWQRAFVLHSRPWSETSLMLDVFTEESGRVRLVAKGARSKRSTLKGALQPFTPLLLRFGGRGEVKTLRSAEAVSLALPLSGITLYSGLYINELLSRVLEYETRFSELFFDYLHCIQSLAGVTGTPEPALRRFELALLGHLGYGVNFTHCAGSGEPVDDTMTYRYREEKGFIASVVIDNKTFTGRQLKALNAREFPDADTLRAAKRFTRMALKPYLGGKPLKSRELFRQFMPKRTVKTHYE
Description: as §1, §2, §3, §4

`CC[C@H](C)[C@H](NC(=O)[C@H](CC(=O)O)NC(=O)[C@H](CC(=O)O)NC(=O)[C@H](CC(=O)O)NC(=O)[C@H](Cc1cccc(Cl)c1)NC(=O)[C@H](CC(=O)O)NC(C)=O)C(=O)N1CCC[C@H]1C(=O)N[C@@H](Cc1ccccc1)C(=O)O` [3-Cl-Phe2] (Ac-D[Phe(3-Cl)]DDDIPF-OH) gave an IC50 (ExoI) of 2.03 ± 0.51 µM and an IC50 (RecO) of 3.44 ± 0.14 µM.

`CC[C@H](C)[C@H](NC(=O)[C@H](CC(=O)O)NC(=O)[C@H](CC(=O)O)NC(=O)[C@H](CC(=O)O)NC(=O)[C@H](Cc1cccnc1)NC(=O)[C@H](CC(=O)O)NC(C)=O)C(=O)N1CCC[C@H]1C(=O)N[C@@H](Cc1ccccc1)C(=O)O` [3Pal2] (Ac-D[3Pal]DDDIPF-OH) showed an IC50 (ExoI) of 7.47 ± 0.88 µM and an IC50 (RecO) of 11.7 ± 0.8 µM.

`CC[C@H](C)[C@H](NC(=O)[C@H](CC(=O)O)NC(=O)[C@H](CC(=O)O)NC(=O)[C@H](CC(=O)O)NC(=O)[C@H](Cc1ccccc1)NC(=O)[C@H](CC(=O)O)NC(C)=O)C(=O)N1CCC[C@H]1C(=O)N[C@@H](Cc1cccnc1)C(=O)O` [3Pal8] (Ac-DFDDDIP[3Pal]-OH) was tested, and the IC50 (ExoI) was 19.9 ± 2.81 µM and the IC50 (RecO) was 31.9 ± 4.16 µM.

For `CC[C@H](C)[C@H](NC(=O)[C@H](CC(=O)O)NC(=O)[C@H](CC(=O)O)NC(=O)[C@H](CC(=O)O)NC(=O)[C@H](Cc1ccc(C(F)(F)F)cc1)NC(=O)[C@H](CC(=O)O)NC(C)=O)C(=O)N1CCC[C@H]1C(=O)N[C@@H](Cc1ccccc1)C(=O)O` [4-CF3-Phe2] (Ac-D[Phe(4-CF3)]DDDIPF-OH), the IC50 (RecO) was 3.27 ± 0.42 µM.

Compound `CC[C@H](C)[C@H](NC(=O)[C@H](CC(=O)O)NC(=O)[C@H](CC(=O)O)NC(=O)[C@H](CC(=O)O)NC(=O)[C@H](Cc1ccc(Cl)cc1)NC(=O)[C@H](CC(=O)O)NC(C)=O)C(=O)N1CCC[C@H]1C(=O)N[C@@H](Cc1ccccc1)C(=O)O` [4-Cl-Phe2] (Ac-D[Phe(4-Cl)]DDDIPF-OH) has an IC50 (RecO) of 2.38 ± 0.27 µM.

`CC[C@H](C)[C@H](NC(=O)[C@H](CC(=O)O)NC(=O)[C@H](CC(=O)O)NC(=O)[C@H](CC(=O)O)NC(=O)[C@H](Cc1ccccc1)NC(=O)[C@H](CC(=O)O)NC(C)=O)C(=O)N1CCC[C@H]1C(=O)N[C@@H](Cc1ccc(Cl)cc1)C(=O)O` [4-Cl-Phe8] (Ac-DFDDDIP[Phe(4-Cl)]-OH) gave an IC50 (ExoI) of 1.41 ± 0.18 µM and an IC50 (RecO) of 3.62 ± 0.84 µM.

`CC[C@H](C)[C@H](NC(=O)[C@H](CC(=O)O)NC(=O)[C@H](CC(=O)O)NC(=O)[C@H](CC(=O)O)NC(=O)[C@H](Cc1ccc(F)cc1)NC(=O)[C@H](CC(=O)O)NC(C)=O)C(=O)N1CCC[C@H]1C(=O)N[C@@H](Cc1ccccc1)C(=O)O` [4-F-Phe2] (Ac-D[Phe(4-F)]DDDIPF-OH) was tested, and the IC50 (RecO) was 3.05 ± 0.28 µM.

In the case of `CC[C@H](C)[C@H](NC(=O)[C@H](CC(=O)O)NC(=O)[C@H](CC(=O)O)NC(=O)[C@H](CC(=O)O)NC(=O)[C@H](Cc1ccccc1)NC(=O)[C@H](CC(=O)O)NC(C)=O)C(=O)N1CCC[C@H]1C(=O)N[C@@H](Cc1ccc(F)cc1)C(=O)O` [4-F-Phe8] (Ac-DFDDDIP[Phe(4-F)]-OH), the IC50 (ExoI) is reported as 3.04 ± 0.64 µM and the IC50 (RecO) is reported as 4.07 ± 7.98 µM.

With `CC(=O)N[C@@H](CC(=O)O)C(=O)N[C@@H](Cc1ccccc1)C(=O)N[C@@H](CC(=O)O)C(=O)N[C@@H](CC(=O)O)C(=O)N[C@@H](CC(=O)O)C(=O)NC(C)(C)C(=O)N1CCC[C@H]1C(=O)N[C@@H](Cc1ccccc1)C(=O)O` [Aib6] (Ac-DFDDD[Aib]PF-OH) the IC50 (ExoI) was 27.6 ± 7.9 µM.

For `CC[C@H](C)[C@H](NC(=O)[C@H](CC(=O)O)NC(=O)[C@H](CC(=O)O)NC(=O)[C@H](CC(=O)O)NC(=O)[C@H](Cc1ccccc1)NC(=O)[C@@H](CC(=O)O)NC(C)=O)C(=O)N1CCC[C@H]1C(=O)N[C@@H](Cc1ccccc1)C(=O)O` [D-Asp1] (Ac-[dD]FDDDIPF-OH), the IC50 (ExoI) was 5.55 ± 0.19 µM and the IC50 (RecO) was 6.56 ± 1.4 µM.

`CC[C@H](C)[C@H](NC(=O)[C@H](CC(=O)O)NC(=O)[C@H](CC(=O)O)NC(=O)[C@@H](CC(=O)O)NC(=O)[C@H](Cc1ccccc1)NC(=O)[C@H](CC(=O)O)NC(C)=O)C(=O)N1CCC[C@H]1C(=O)N[C@@H](Cc1ccccc1)C(=O)O` [D-Asp3] (Ac-DF[dD]DDIPF-OH) showed an IC50 (ExoI) of 6.82 ± 0.53 µM and an IC50 (RecO) of 4.56 ± 1.53 µM.

`CC[C@H](C)[C@H](NC(=O)[C@H](CC(=O)O)NC(=O)[C@@H](CC(=O)O)NC(=O)[C@H](CC(=O)O)NC(=O)[C@H](Cc1ccccc1)NC(=O)[C@H](CC(=O)O)NC(C)=O)C(=O)N1CCC[C@H]1C(=O)N[C@@H](Cc1ccccc1)C(=O)O` [D-Asp4] (Ac-DFD[dD]DIPF-OH) gave an IC50 (ExoI) of 3.08 ± 0.07 µM and an IC50 (RecO) of 5.92 ± 0.91 µM.
